Experimental data taken from paper PMC5381194, “On-chip in vitro cell-network pre-clinical cardiac toxicity using spatiotemporal human cardiomyocyte measurement on a chip” (Scientific Reports, 2014).
Where two headings read alike, the source gives them in different places.

Assays:
[1] = test system: human embryonic stem cell-derived cardiomyocyte cluster (hES-CMC); settings: for Arrest (%) / Fib-like (%): human, 10 min
hERG = hERG (Homo sapiens, UniProt Q12809); test: hERG assay: K+ current by patch clamp in hERG expressing CHO-K1 cells; settings: pH 7.4
Sequence of hERG (Q12809 whole entry): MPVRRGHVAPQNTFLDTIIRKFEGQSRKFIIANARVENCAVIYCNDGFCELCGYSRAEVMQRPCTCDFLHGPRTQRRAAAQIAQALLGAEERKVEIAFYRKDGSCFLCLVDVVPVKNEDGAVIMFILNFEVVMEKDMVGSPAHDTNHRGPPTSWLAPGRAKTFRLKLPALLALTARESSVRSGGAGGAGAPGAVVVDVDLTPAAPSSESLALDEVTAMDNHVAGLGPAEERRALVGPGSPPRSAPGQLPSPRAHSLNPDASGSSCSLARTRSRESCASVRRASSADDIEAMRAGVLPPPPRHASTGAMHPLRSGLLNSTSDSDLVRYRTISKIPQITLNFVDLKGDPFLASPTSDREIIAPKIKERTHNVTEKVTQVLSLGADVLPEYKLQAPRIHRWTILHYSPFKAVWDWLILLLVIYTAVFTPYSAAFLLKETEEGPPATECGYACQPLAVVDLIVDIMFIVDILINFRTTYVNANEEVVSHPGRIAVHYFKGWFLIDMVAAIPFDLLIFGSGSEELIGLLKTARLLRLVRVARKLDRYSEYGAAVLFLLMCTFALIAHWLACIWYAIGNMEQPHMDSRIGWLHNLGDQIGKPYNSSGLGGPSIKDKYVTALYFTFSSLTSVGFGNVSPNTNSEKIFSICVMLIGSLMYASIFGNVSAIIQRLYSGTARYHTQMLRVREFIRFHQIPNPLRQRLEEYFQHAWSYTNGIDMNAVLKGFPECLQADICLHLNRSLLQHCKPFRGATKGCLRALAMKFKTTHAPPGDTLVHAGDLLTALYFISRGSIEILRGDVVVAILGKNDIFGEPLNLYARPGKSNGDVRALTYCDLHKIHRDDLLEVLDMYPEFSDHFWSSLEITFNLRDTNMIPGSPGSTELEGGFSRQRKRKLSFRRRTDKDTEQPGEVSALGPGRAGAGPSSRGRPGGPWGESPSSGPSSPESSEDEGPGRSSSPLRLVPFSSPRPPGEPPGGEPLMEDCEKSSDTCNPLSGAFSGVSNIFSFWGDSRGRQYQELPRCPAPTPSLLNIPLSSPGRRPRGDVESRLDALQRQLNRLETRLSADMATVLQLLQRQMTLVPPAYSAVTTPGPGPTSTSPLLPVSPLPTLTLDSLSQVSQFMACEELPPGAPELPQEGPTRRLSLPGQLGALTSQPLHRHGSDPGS
Method: Supplementary Explanation of Methods [in online]
Measurement of potassium (K+) current by patch clamp in hERG expressing CHO-K1 cells A patch clamp glass electrode was filled with internal solution (KCl: 130 mM, MgCl2: 1 mM, EGTA: 5 mM, MgATP: 5 mM, HEPES: 10 mM, pH 7.20). The electrode was attached to a patch clamp headstage holder and the tip of the electrode was brought into contact with the cell membrane with a micromanipulator under the microscope. Slight negative pressure from suction was created inside the electrode and the patch clamp system AXOPATCH 200B (Axon Instruments) and Clampex 9.2 was used to obtain a measured membrane resistance value (R-memb) greater than 20 megohms. The resting membrane potential was set at -80 mV just to wait to obtain R-memb greater than 1 gigaohms. Then to make whole-cell clamp mode, a strong suction was applied to rupture the cell membrane under the electrode. Cell capacitance and series resistance were compensated. The stimulation protocol (holding potential: -80 mV, depolarization pulse: +50 mV, for 2 s, repolarization pulse: -40 mV, for 2 s, pulse frequency:
0.067 Hz) was applied and the corresponding current was recorded. After the current waveform became stable, the application solutions were added cumulatively from the lowest concentration.
The cells were exposed to each concentration for 5 minutes and washed with Tyrode solution […]
pH 7.40) to observe the recovery after the exposure to the highest concentration. All experiments (n=3) were carried out at room temperature. The cells were perfused with Tyrode solution at the rate of 2.5 ml/min through the experiment as the background flow. The test compound was added to the cells directly via a pipette set nearby the cells at the rate of 350-400 µl/min.
Percentage change from pre-application values in tail peak current (% inhibition) was calculated […]
application/average of the consecutive 4 currents just before the start of the first application (the lowest one)] × 100. The dose levels were selected to describe the dose response curve. The maximum concentration was set to at least approximately 30~100 times its effective therapeutic plasma concentration in consideration of the solubility. […]

[2] = set-up: method as in references and pharmaceutical attachments; settings: clinical report; effective therapeutic plasma concentration; ref references and pharmaceutical attachments; cited from earlier work
[3] = test system: human embryonic stem cell-derived cardiomyocyte cluster (hES-CMC); test: On-chip MEA field potential recording of hCM clusters (temporal FPD and STVFPD); settings: for Score (On-chip MEA system, VT/TdP risk): more than 1.9-fold of STVFPD is the border of high risk of VT/TdP; for FPD (ratio) / STVFPD (ratio): 10 μM (Ref. dose ca. 10^2 × CMAX), ratio against the control, mean ± S.E.
[4] = clinical VT/TdP risk compiled from the literature; ref literature; cited from earlier work
[5] = test system: isolated Langendorff-perfused female rabbit heart; test: MAPD measurement in isolated Langendorff-perfused female rabbit heart; settings: relative ratio against the control, mean
Source text: (§1) megohms, which was coupled to an Ag-AgCl bath electrode and connected to a microelectrode […]
(§2) amplifier (MEZ-8300, Nihon Koden). […]
(§3) computer system (WinCAPA1.6.6.Aui, Physio-Tech). The components of the action potential analyzed by the computer system are: resting membrane potential (RMP), action potential amplitude (APA), overshoot (OS), action potential duration at 30%, 50% and 90% of repolarization (APD30, APD50 and APD90, respectively) and maximum rate of rising phase (V max = dV/dt max). After an equilibration period for at least one hour, the test compound was added to the organ bath at increasing cumulative concentrations. The administration volume and rate was 20, 40, 140 µl/20 ml organ bath and 1 s/dose. Cardiac action potentials were recorded before and 30 minutes after the exposure of the test compound at each concentration.
The dose levels were selected to describe the dose response curve.
(§4) Monophasic action potential duration (MAPD) measurements in isolated Langendorff-perfused female rabbit heart
(§5) Female NZW rabbit were anesthetized by an intravenous injection of thiopental (30 mg/kg) and heparin (500 U/kg). Then the heart was quickly removed and its aorta was cannulated, the bundle of His was sectioned, for perfusion of the coronary artery according to the Langendorff method with constant pressure (initial perfusion pressure: 60-70 mmHg). The heart was perfused at […]

[6] = test system: guinea pig right ventricular papillary muscle; test: APD assay: action potential recording in guinea pig right ventricular papillary muscle; settings: relative ratio against the control, mean
Method: After the current waveform
(n=3) were carried out at room temperature. The cells were perfused with Tyrode solution at the […]
lowest one)] × 100. […] The […]
plasma concentration in consideration of the solubility. […]
as §1, §2, §3, §4, §5
KCl: 4.7 mM, CaCl2: 2.5 mM, MgSO4: 1.2 mM, KH2PO4: 1.2 mM, NaHCO3: 25 mM, glucose:
Two electrocardiogram (ECG) […]
electrodes were held lightly against the epicardium, the positive one on the left ventricle, the […]

[7] = hCM clusters, 10 μM, ratio of lethally abnormal events

Compound	Cmax [2]	Score (On-chip MEA system, VT/TdP risk) [3]	VT/VF/TdP (Clinical report) [4]	Arrest (%) ([1]; 10 µM)	Fib-like (%) ([1]; 10 µM)	also measured
CC(C)NCC(O)c1ccc(NS(C)(=O)=O)cc1 (racemic) [DL-sotalol]	2500 nM					Score (On-chip MEA system, VT/TdP risk) [1]: High; Arrest (%) ([1]; 1000 µM): 5%; Fib-like (%) ([1]; 1000 µM): 0%; inhibition at 5 min, 30 µM (hERG; CHO-K1 cells expressing hERG): 19.2%
COc1ccc(CCN2CCC(Nc3nc4ccccc4n3Cc3ccc(F)cc3)CC2)cc1 [Astemizole]	2 nM	High	(+)			Arrest (%) ([1]; 0.1 µM): 0%; Fib-like (%) ([1]; 0.1 µM): 14%
CC(C)COCC(CN(Cc1ccccc1)c1ccccc1)N1CCCC1 (centres unmarked) [Bepridil]	300 nM	High	(+)	5%	5%	inhibition at 5 min, 0.3 µM (hERG; CHO-K1 cells expressing hERG): 61.9%; FPD (ratio) ([3]; hCM clusters): 1.21 ± 0.12 ratio; STVFPD (ratio) ([3]; hCM clusters): 4.74 ± 2.26 ratio; MAPD90 prolongation in Langendorff hearts (ratio) ([5]; 10 μM): 1.12 ratio; APD90 prolongation in papillary musole (ratio) ([6]; 10 μM): 1.02 ratio
COc1cc(N)c(Cl)cc1C(=O)NC1CCN(CCCOc2ccc(F)cc2)CC1OC (centres unmarked) [Cisapride]	180 nM	High	(+)	0%	4%	inhibition at 5 min, 1 µM (hERG; CHO-K1 cells expressing hERG): 90.6%; FPD (ratio) ([3]; hCM clusters): 1.37 ± 0.07 ratio; STVFPD (ratio) ([3]; hCM clusters): 3.82 ± 0.85 ratio; MAPD90 prolongation in Langendorff hearts (ratio) ([5]; 1 μM): 1.37 ratio; APD90 prolongation in papillary musole (ratio) ([6]; 1 μM): 1.14 ratio
CN(C)CCCC1(c2ccc(F)cc2)OCc2cc(C#N)ccc21 (centres unmarked) [Citalopram]	270 nM	High	(+)	12%	0%	inhibition at 10 µM (hERG): 83.5%; FPD (ratio) ([3]; hCM clusters): 0.86 ± 0.04 ratio; STVFPD (ratio) ([3]; hCM clusters): 2.75 ± 0.78 ratio; APD90 prolongation in papillary musole (ratio) ([6]; 10 μM): 0.95 ratio
COc1ccc([C@@H]2Sc3ccccc3N(CCN(C)C)C(=O)[C@@H]2OC(C)=O)cc1 [Diltiazem]	110 nM	Low				Arrest (%) ([1]; 1 µM): 50%; Fib-like (%) ([1]; 1 µM): 0%
CC(C)(C)c1ccc(C(=O)CCCN2CCC(OC(c3ccccc3)c3ccccc3)CC2)cc1 [Ebastine]	160 nM	Low				Arrest (%) ([1]; 1 µM): 0%; Fib-like (%) ([1]; 1 µM): 0%
NC(N)=Nc1nc(CSCCC(N)=NS(N)(=O)=O)cs1 [Famotidine]	190 nM	Low		0%	0%	
O=C(NCC1CCCCN1)c1cc(OCC(F)(F)F)ccc1OCC(F)(F)F (centres unmarked) [Flecainide]	430 nM	High				Arrest (%) ([1]; 100 µM): 13%; Fib-like (%) ([1]; 100 µM): 0%; inhibition at 5 min, 10 µM (hERG; CHO-K1 cells expressing hERG): 88.3%
C[C@H]1COc2c(N3CCN(C)CC3)c(F)cc3c(=O)c(C(=O)O)cn1c23 [Levofloxacin]	22000 nM	Low				Arrest (%) ([1]; 1000 µM): 40%; Fib-like (%) ([1]; 1000 µM): 4%; inhibition at 5 min, 300 µM (hERG; CHO-K1 cells expressing hERG): 13.2%
COc1c(N2C[C@@H]3CCCN[C@@H]3C2)c(F)cc2c(=O)c(C(=O)O)cn(C3CC3)c12 [Moxifloxacin]	10000 nM					Arrest (%) ([1]; 100 µM): 0%; Fib-like (%) ([1]; 100 µM): 0%
Fc1ccc([C@@H]2CCNC[C@H]2COc2ccc3c(c2)OCO3)cc1 [Paroxetin]	70 nM	High				FPD (ratio) ([3]; hCM clusters): 1.30 ± 0.06 ratio; STVFPD (ratio) ([3]; hCM clusters): 2.27 ± 0.41 ratio; Arrest (%) [3, 7]: 13%; Fib-like (%) [3, 7]: 0%
CC(C)(C)c1ccc(C(O)CCCN2CCC(C(O)(c3ccccc3)c3ccccc3)CC2)cc1 (centres unmarked) [Terfenadine]	220 nM	High	(+)	21%	3%	STVFPD in hCM clusters, long-term observation ([3]; 0.3 μM, even at 72 h): no significant increase; time at which FPD reached the risk level ([3]; 0.3 μM, hCM clusters, long-term observation): 24 h; FPD in hCM clusters, long-term observation ([3]; 0.3 μM, observed 8 h after application): gradual increase
CSc1ccc2c(c1)N(CCC1CCCCN1C)c1ccccc1S2 (centres unmarked) [Thioridazine]	1800 nM	High	(+)	0%	0%	
